Reference: patent US11555036B2, “FGFR4 inhibitor, preparation method therefor and pharmaceutical use thereof” (Abbisko Therapeutics Co., Ltd., priority 2016, dated 2023)

What was measured:
[1] = biological target: FGFR4 (Homo sapiens, UniProt P22455); assay: FGFR4 Caliper Assay (in vitro biochemical kinase analysis of FGFR4); conditions: read-out: Enzymatic activity FGFR4 IC50
Summary of the method: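 Kinase reaction at 30° C for 40 min in 50 mM HEPES pH 7.5, 16 mM MgCl2, 1 mM DTT, 0.6% DMSO, stopped with EDTA. Phosphorylated and unphosphorylated fluorescent peptides separated by Caliper microfluidic mobility shift. IC50 by non-linear regression of percent inhibition.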

[2] = test system: Huh7 hepatocellular carcinoma cells; assay: FGFR4 cell proliferation experiment, Cell Titer Glo (CTG); assay type: cell-based; conditions: Homo sapiens, Huh-7, 72 h, HuH-7 cells, 3 days; for IC50: concentration leading to absolute half growth inhibition; for EC50: concentration leading to half maximal growth inhibition
Summary of the method: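 Cells treated with 5-fold serial dilutions starting at 10 μM for 3 days at 37° C, 5% CO2. Proliferation/survival quantified as cellular ATP by CellTiter-Glo luminescence.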

FGFR4, sequence (P22455 22-802): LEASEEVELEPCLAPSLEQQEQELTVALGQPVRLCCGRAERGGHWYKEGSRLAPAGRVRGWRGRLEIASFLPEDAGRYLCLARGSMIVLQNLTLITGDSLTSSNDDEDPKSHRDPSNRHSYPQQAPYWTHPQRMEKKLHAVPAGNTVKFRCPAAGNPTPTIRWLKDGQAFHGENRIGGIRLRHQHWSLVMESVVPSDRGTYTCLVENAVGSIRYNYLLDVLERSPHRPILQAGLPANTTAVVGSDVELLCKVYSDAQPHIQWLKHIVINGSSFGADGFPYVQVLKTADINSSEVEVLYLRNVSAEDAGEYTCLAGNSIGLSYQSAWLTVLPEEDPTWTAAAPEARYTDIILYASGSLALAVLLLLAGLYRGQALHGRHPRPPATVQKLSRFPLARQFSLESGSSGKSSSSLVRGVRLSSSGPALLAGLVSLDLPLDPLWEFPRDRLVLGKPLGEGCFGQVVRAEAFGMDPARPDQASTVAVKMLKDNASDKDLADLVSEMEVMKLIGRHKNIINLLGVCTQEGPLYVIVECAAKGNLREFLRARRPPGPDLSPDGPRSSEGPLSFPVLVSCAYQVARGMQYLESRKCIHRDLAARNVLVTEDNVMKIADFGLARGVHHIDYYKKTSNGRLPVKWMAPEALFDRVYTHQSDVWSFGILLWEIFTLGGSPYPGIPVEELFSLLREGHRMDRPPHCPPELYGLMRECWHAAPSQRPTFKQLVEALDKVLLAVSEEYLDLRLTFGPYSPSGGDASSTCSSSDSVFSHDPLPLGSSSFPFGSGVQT

Which results are given for `C=CC(=O)N[C@H]1COC[C@H]1Nc1ncc2cc(-c3c(Cl)c(OC)cc(OC)c3Cl)nc(N3CCC3)c2n1` [Example 657, N-((3R,4S)-4-((8-(azetidin-1-yl)-6-(2,6-dichloro-3,5-dimethoxyphenyl)py-rido[3,4-d]pyrimidin-2-yl)amino)tetra-hydrofuran-3-yl)acrylamide]?
IC50 [1]: 6.5 nM; IC50 [2]: 13.3 nM; EC50 [2]: 9.6 nM

Which IC50 [1] does the source give for `C=CC(=O)N[C@H]1COC[C@H]1Nc1ncc2cc(-c3c(Cl)c(OC)cc(OC)c3Cl)nc(N3CC(OC)C3)c2n1` [Example 658, N-((3R,4S)-4-((6-(2,6-dichloro-3,5-dimethoxyphenyl)-8-(3-methoxyazeti-din-1-yl)pyrido[3,4-d]pyrimidin-2-yl)amino)tetrahydrofuran-3-yl)acryl-amide] here?
Its IC50 is 4.8 nM.

And the IC50 [2]?
The IC50 was 15.1 nM.

And the EC50 [2]?
Its EC50 is 11.4 nM.

What does the source list for `C=CC(=O)N[C@H]1COC[C@H]1Nc1ncc2cc(-c3c(F)c(OC)cc(OC)c3F)nc(N3CC(OC)C3)c2n1` [Example 659, N-((3R,4S)-4-((6-(2,6-difluoro-3,5-dimethoxyphenyl)-8-(3-methoxyazeti-din-1-yl)pyrido[3,4-d]pyrimidin-2-yl)a-mino)tetrahydrofuran-3-yl)acryl-amide]?
IC50 [1]: 6.6 nM; IC50 [2]: 24.3 nM; EC50 [2]: 18 nM

What does the source list for `C=CC(=O)N[C@H]1COC[C@H]1Nc1ncc2cc(-c3c(Cl)c(OC)cc(OC)c3Cl)nc(N3CC(F)(F)C3)c2n1` [Example 663, N-((3R,4S)-4-((6-(2,6-dichloro-3,5-dimethoxyphenyl)-8-(3,3-difluoroaze-tidin-1-yl)pyrido[3,4-d]pyrimidin-2-yl)amino)tetrahydrofuran-3-yl)acryl-amide]?
IC50 [1]: 4.5 nM; IC50 [2]: 3.5 nM; EC50 [2]: 2.3 nM

Which IC50 [1] does the source give for `C=CC(=O)N[C@H]1COC[C@H]1Nc1ncc2cc(-c3c(Cl)c(OC)cc(OC)c3Cl)nc(N3CC(C)(O)C3)c2n1` [Example 664, N-((3R,4S)-4-((6-(2,6-dichloro-3,5-dimethoxyphenyl)-8-(3-hydroxy-3-meth-ylazetidin-1-yl)pyrido[3,4-d]pyrimi-din-2-yl)amino)tetrahydrofuran-3-yl)acrylamide] here?
Its IC50 is 4.9 nM.

And the IC50 [2]?
The IC50 was 4.9 nM.

What about the EC50 [2] of the same compound?
The EC50 was 3.7 nM.

With `C=CC(=O)N[C@H]1COC[C@H]1Nc1ncc2cc(-c3c(Cl)c(OC)cc(OC)c3Cl)nc(N3CC(C)(OC)C3)c2n1` [Example 665, N-((3R,4S)-4-((6-(2,6-dichloro-3,5-di-methoxyphenyl)-8-(3-methoxy-3-methylazetidin-1-yl)pyrido[3,4-d]py-rimidin-2-yl)amino)tetrahydrofuran-3-yl)acrylamide] as the compound, how does the IC50 [1] read?
Its IC50 is 5.7 nM.

And the IC50 [2]?
Its IC50 is 11.8 nM.

And the EC50 [2]?
The EC50 was 9.9 nM.

For `C=CC(=O)N[C@H]1COC[C@H]1Nc1ncc2cc(-c3c(F)c(OC)cc(OC)c3F)nc(N3CC(C)(OC)C3)c2n1` [Example 666, N-((3R,4S)-4-((6-(2,6-difluoro-3,5-dimethoxyphenyl)-8-(3-methoxy-3-methylazetidin-1-yl)pyrido[3,4-d]pyri-midin-2-yl)amino)tetrahydrofuran-3-yl)acrylamide], which IC50 [1] is on record?
The IC50 was 4.5 nM.

And the IC50 [2]?
Its IC50 is 4.6 nM.

And the EC50 [2]?
The EC50 was 3.2 nM.

Which IC50 [1] does the source give for `C=CC(=O)N[C@H]1COC[C@H]1Nc1ncc2cc(-c3c(Cl)c(OC)cc(OC)c3Cl)nc(N3CC4(COC4)C3)c2n1` [Example 668, N-((3R,4S)-4-((6-(2,6-dichloro-3,5-dimethoxyphenyl)-8-(2-oxa-6-aza-spiro[3.3]heptan-6-yl)pyrido[3,4-d]py-rimidin-2-yl)amino)tetrahydrofuran-3-yl)acrylamide] here?
The IC50 was 14.7 nM.

What about the IC50 [2] of the same compound?
The IC50 was 22.6 nM.

What about the EC50 [2] of the same compound?
Its EC50 is 16 nM.

`C=CC(=O)N[C@H]1COC[C@H]1Nc1ncc2cc(-c3c(Cl)c(OC)cc(OC)c3Cl)nc(N3CC4(CCOCC4)C3)c2n1` [Example 675, N-((3R,4S)-4-((6-(2,6-dichloro-3,5-dimethoxyphenyl)-8-(7-oxa-2-azaspiro[3.5]nonan-2-yl)pyrido[3,4-d]pyrimidin-2-yl)amino)tetrahydrofuran-3-yl)acrylamide] was tested. Which IC50 [1] did it give?
The IC50 was 11 nM.

And the IC50 [2]?
The IC50 was 8.7 nM.

What about the EC50 [2] of the same compound?
The EC50 was 6.2 nM.

How did the IC50 [1] turn out when `C=CC(=O)N[C@H]1COC[C@H]1Nc1ncc2cc(-c3c(Cl)c(OC)cc(OC)c3Cl)nc(N3CCC(OC)C3)c2n1` (stereo partly drawn) [Example 677, N-((3R,4S)-4-((6-(2,6-dichloro-3,5-dimethoxyphenyl)-8-(3-methoxypyrro-lidin-1-yl)pyrido[3,4-d]pyrimidin-2-yl)amino)tetrahydrofuran-3-yl)acryl-amide] was run?
Its IC50 is 7.4 nM.

And the IC50 [2]?
The IC50 was 5.3 nM.

What about the EC50 [2] of the same compound?
Its EC50 is 3.7 nM.

How did the IC50 [1] turn out when `C=CC(=O)N[C@H]1COC[C@H]1Nc1ncc2cc(-c3c(F)c(OC)cc(OC)c3F)nc(N3CCC(OC)C3)c2n1` (stereo partly drawn) [Example 678, N-((3R,4S)-4-((6-(2,6-difluoro-3,5-di-methoxyphenyl)-8-(3-methoxypyrro-lidin-1-yl)pyrido[3,4-d]pyrimidin-2-yl)amino)tetrahydrofuran-3-yl)acryl-amide] was run?
The IC50 was 6.5 nM.

What about the IC50 [2] of the same compound?
The IC50 was 16.5 nM.

What about the EC50 [2] of the same compound?
Its EC50 is 13.3 nM.

For `C=CC(=O)N[C@H]1COC[C@H]1Nc1ncc2cc(-c3c(Cl)c(OC)cc(OC)c3Cl)nc(N3CCOCC3)c2n1` [Example 686, N-((3R,4S)-4-((6-(2,6-dichloro-3,5-dimethoxyphenyl)-8-morpholino-pyrido[3,4-d]pyrimidin-2-yl)amino)tetra-hydrofuran-3-yl)acrylamide], which IC50 [1] is on record?
The IC50 was 8.2 nM.

What about the IC50 [2] of the same compound?
The IC50 was 8.8 nM.

And the EC50 [2]?
Its EC50 is 5.4 nM.

What does the source list for `C=CC(=O)N[C@H]1COC[C@H]1Nc1ncc2cc(-c3c(F)c(OC)cc(OC)c3F)nc(N3CCOCC3)c2n1` [Example 687, N-((3R,4S)-4-((6-(2,6-difluoro-3,5-dimethoxyphenyl)-8-morpholino-pyrido[3,4-d]pyrimidin-2-yl)a-mino)tetrahydrofuran-3-yl)acrylamide]?
IC50 [1]: 6.3 nM; IC50 [2]: 10 nM; EC50 [2]: 6.9 nM

How did the IC50 [1] turn out when `C=CC(=O)N[C@H]1COC[C@H]1Nc1ncc2cc(-c3c(Cl)c(OC)cc(OC)c3Cl)nc(N3CC(C)OC(C)C3)c2n1` (stereo partly drawn) [Example 690, N-((3R,4S)-4-((6-(2,6-dichloro-3,5-dimethoxyphenyl)-8-(2,6-dimethyl-morpholino)pyrido[3,4-d]pyrimidin-2-yl)amino)tetrahydrofuran-3-yl)acryl-amide] was run?
Its IC50 is 8 nM.

What about the IC50 [2] of the same compound?
Its IC50 is 12.1 nM.

And the EC50 [2]?
The EC50 was 8.4 nM.

What does the source list for `C=CC(=O)N[C@H]1COC[C@H]1Nc1ncc2cc(-c3c(Cl)c(OC)cc(OC)c3Cl)nc(N3CCC(OC)CC3)c2n1` [Example 693, N-((3R,4S)-4-((6-(2,6-dichloro-3,5-dimethoxyphenyl)-8-(4-methoxy-piperidin-1-l)pyrido[3,4-d]pyrimidin-2-yl)amino)tetrahydrofuran-3-yl)acryl-amide]?
IC50 [1]: 5.6 nM; IC50 [2]: 2.1 nM; EC50 [2]: 1.3 nM

What does the source list for `C=CC(=O)N[C@H]1COC[C@H]1Nc1ncc2cc(-c3c(F)c(OC)cc(OC)c3F)nc(N3CCC(OC)CC3)c2n1` [Example 694, N-((3R,4S)-4-((6-(2,6-difluoro-3,5-dimethoxyphenyl)-8-(4-methoxypiper-idin-1-yl)pyrido[3,4-d]pyrimidin-2-yl)amino)tetrahydrofuran-3-yl)acryl-amide]?
IC50 [1]: 4.8 nM; IC50 [2]: 12 nM; EC50 [2]: 10 nM

`C=CC(=O)N[C@H]1CCOC[C@H]1Nc1ncc2cc(-c3c(Cl)c(OC)cc(OC)c3Cl)nc(N3CC(OC)C3)c2n1` [Example 704, N-((3S,4S)-3-((6-(2,6-dichloro-3,5-di-methoxyphenyl)-8-(3-methoxyazeti-din-1-yl)pyrido[3,4-d]pyrimidin-2-yl)amino)tetrahydro-2H-pyran-4-yl)acrylamide] was tested. Which IC50 [1] did it give?
The IC50 was 8.5 nM.

What about the IC50 [2] of the same compound?
Its IC50 is 20.2 nM.

What about the EC50 [2] of the same compound?
Its EC50 is 17.2 nM.

For `C=CC(=O)Nc1cnn(CCOC)c1-c1ncc2cc(-c3c(Cl)c(OC)cc(OC)c3Cl)ncc2n1` [Example 715, N-(5-(6-(2,6-dichloro-3,5-dimethoxyphenyl)pyrido[3,4-d]pyrimidin-2-yl)-1-(2-methoxyethyl)-1H-pyrazol-4-yl)acrylamide], which IC50 [1] is on record?
The IC50 was 62.7 nM.

What about the IC50 [2] of the same compound?
Its IC50 is 1920 nM.

What about the EC50 [2] of the same compound?
Its EC50 is 1920 nM.

What does the source list for `C=CC(=O)Nc1cnn(CCOC)c1-c1cc2cnc(-c3c(Cl)c(OC)cc(OC)c3Cl)cc2cn1` [Example 723, N-(5-(7-(2,6-dichloro-3,5-dimethoxyphenyl)-2,6-naphthyridin-3-yl)-1-(2-methoxyethyl)-1H-pyrazol-4-yl)acrylamide]?
IC50 [1]: 78.5 nM; IC50 [2]: 1210 nM; EC50 [2]: 338 nM

With `C=CC(=O)NCc1cc2c(cn1)cc(-c1c(Cl)c(OC)cc(OC)c1Cl)c(=O)n2C` [Example 730, N-((3-(2,6-dichloro-3,5-dimethoxyphenyl)-1-methyl-2-oxo-1,2-dihydro-1,6-naphthyridin-7-yl)methyl)acrylamide] as the compound, how does the IC50 [1] read?
Its IC50 is 115 nM.

And the IC50 [2]?
The IC50 was 194 nM.

What about the EC50 [2] of the same compound?
Its EC50 is 164 nM.

`C=CC(=O)N[C@H]1COC[C@H]1Nc1cc2c(NC)nc(-c3c(Cl)c(OC)cc(OC)c3Cl)nc2cn1` [Example 752, N-((3R,4S)-4-((2-(2,6-dichloro-3,5-dimethoxyphenyl)-4-(methylamino)pyrido [3,4-d]pyrimidin-6-yl)amino)tetrahydro-furan-3-yl)acrylamide] was tested. Which IC50 [1] did it give?
The IC50 was 991 nM.

What about the IC50 [2] of the same compound?
Its IC50 is 2630 nM.

And the EC50 [2]?
The EC50 was 1710 nM.

What does the source list for `C=CC(=O)N[C@H]1COC[C@H]1Nc1ncc2cc(-c3c(Cl)c(OC)cc(OC)c3Cl)nc(Cl)c2n1` [Example 753, N-((3R,4S)-4-((8-chloro-6-(2,6-di-chloro-3,5-dimethoxyphenyl)py-rido[3,4-d]pyrimidin-2-yl)amino)tetrahydro-furan-3-yl)acrylamide]?
IC50 [1]: 19 nM; IC50 [2]: 212 nM; EC50 [2]: 130 nM

`[2H]C([2H])([2H])Oc1cc(OC([2H])([2H])[2H])c(Cl)c(-c2cc3cnc(N[C@@H]4COC[C@@H]4NC(=O)C=C)nc3c(OCC)n2)c1Cl` [Example 754, N-((3R,4S)-4-((6-(2,6-dichloro-3,5-bis(methoxy-d3)phenyl)-8-ethoxy-pyrido[3,4-d]pyrimidin-2-yl)amino)tetra-hydrofuran-3-yl)acrylamide] was tested. Which IC50 [1] did it give?
Its IC50 is 13.6 nM.

And the IC50 [2]?
Its IC50 is 54 nM.

What about the EC50 [2] of the same compound?
Its EC50 is 18 nM.
